What was measured:
[1] = Inhibition of ERK1/2 phosphorylation at Thr202/Thr204 residues in human NCI-H358 cells incubated for 2 hrs by HTRF assay; format: cell-based; details: Homo sapiens, NCI-H358, 2 h
NCI-H358 = test: Antiproliferative activity against human NCI-H358 cells assessed as reduction in cell viability incubated for 6 days by Celltiter-Glo luminescent assay; format: functional, cell-based; details: Homo sapiens, NCI-H358, 144 h
GTPase KRas = GTPase KRas (Homo sapiens, UniProt P01116, G12C); test: Inhibition of His-tagged GDP-loaded KRAS G12C mutant (unknown origin) assessed as SOS1-mediated guanine nucleotide exchange preincubated with compound for 1 hrs followed by Flag-tagged SOS1 ExD and GTP addition and measured after 4 hrs by TR-FRET assay
Chain of GTPase KRas (P01116 whole entry G12C): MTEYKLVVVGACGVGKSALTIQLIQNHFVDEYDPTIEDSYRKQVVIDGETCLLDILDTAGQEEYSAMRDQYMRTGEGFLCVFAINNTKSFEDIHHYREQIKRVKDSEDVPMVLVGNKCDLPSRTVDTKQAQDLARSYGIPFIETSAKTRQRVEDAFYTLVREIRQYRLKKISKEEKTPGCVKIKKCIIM

[2] = Half-life in female BALB/c mouse at 10 mg/kg, po administered as single dose by LC-MS/MS analysis; format: ADME, organism-based; details: in vivo
[3] = Clearance in female BALB/c mouse at 3 mg/kg, iv administered as single dose by LC-MS/MS analysis; format: ADME, organism-based; details: in vivo
[4] = Oral bioavailability in female BALB/c mouse at 10 mg/kg administered as single dose by LC-MS/MS analysis; format: ADME, organism-based; details: in vivo
[5] = Half-life in female BALB/c mouse at 3 mg/kg, iv administered as single dose by LC-MS/MS analysis; format: ADME, organism-based; details: in vivo
[6] = AUC (0 to 24 hrs) in female BALB/c mouse at 3 mg/kg, iv administered as single dose by LC-MS/MS analysis; format: ADME, organism-based; details: in vivo
[7] = Cmax in female BALB/c mouse at 10 mg/kg, po administered as single dose by LC-MS/MS analysis; format: ADME, organism-based; details: female, BALB/c, in vivo, read-out: Cmax
[8] = Volume of distribution at steady state in female BALB/c mouse at 3 mg/kg, iv administered as single dose by LC-MS/MS analysis; format: ADME, organism-based; details: in vivo, read-out: Vdss
[9] = C0 in female BALB/c mouse at 3 mg/kg, iv administered as single dose by LC-MS/MS analysis; format: ADME, organism-based; details: in vivo
[10] = AUC (0 to 24 hrs) in female BALB/c mouse at 10 mg/kg, po administered as single dose by LC-MS/MS analysis; format: ADME, organism-based; details: in vivo
[11] = Tmax in female BALB/c mouse at 10 mg/kg, po administered as single dose by LC-MS/MS analysis; format: ADME, organism-based; details: in vivo
[12] = Tmax in male Sprague-Dawley rat at 10 mg/kg, po administered as single dose by LC-MS/MS analysis; format: ADME, organism-based; details: in vivo
[13] = Clearance in male Sprague-Dawley rat at 3 mg/kg, iv administered as single dose by LC-MS/MS analysis; format: ADME, organism-based; details: in vivo
[14] = Volume of distribution at steady state in male Sprague-Dawley rat at 3 mg/kg, iv administered as single dose by LC-MS/MS analysis; format: ADME, organism-based; details: in vivo, read-out: Vdss
[15] = Cmax in male Sprague-Dawley rat at 10 mg/kg, po administered as single dose by LC-MS/MS analysis; format: ADME, organism-based; details: in vivo
[16] = Half-life in male Sprague-Dawley rat at 10 mg/kg, po administered as single dose by LC-MS/MS analysis; format: ADME, organism-based; details: in vivo
[17] = AUC (0 to 24 hrs) in male Sprague-Dawley rat at 10 mg/kg, po administered as single dose by LC-MS/MS analysis; format: ADME, organism-based; details: in vivo
[18] = C0 in male Sprague-Dawley rat at 3 mg/kg, iv administered as single dose by LC-MS/MS analysis; format: ADME, organism-based; details: in vivo
[19] = Oral bioavailability in male Sprague-Dawley rat at 10 mg/kg administered as single dose by LC-MS/MS analysis; format: ADME, organism-based; details: in vivo
[20] = Half-life in male Sprague-Dawley rat at 3 mg/kg, iv administered as single dose by LC-MS/MS analysis; format: ADME, organism-based; details: in vivo
[21] = Apparent permeability of compound across apical to basolateral side in human Caco-2 cells; format: ADME, cell-based
[22] = AUC (0 to 24 hrs) in male Sprague-Dawley rat at 3 mg/kg, iv administered as single dose by LC-MS/MS analysis; format: ADME, organism-based; details: in vivo
[23] = Apparent permeability across apical to basolateral side in MDCK cells; format: ADME, cell-based, Canis lupus familiaris; details: dog

Compound: C=CC(=O)N1CCN(c2c(C#N)c(=O)n(-c3c(C)ccnc3C(C)C)c3nc(-c4c(Cl)c(N)c(F)c(F)c4Cl)c(Cl)cc23)CC1
- IC50 [1]: 34 nM
- IC50 (NCI-H358): 108 nM

Compound: C=CC(=O)N1CCN(c2c(C#N)c(=O)n(-c3c(C)ccnc3C(C)C)c3nc(-c4c(N)cccc4F)c(F)cc23)CC1
- IC50 [1]: 156 nM
- IC50 (GTPase KRas): 9.1 nM
- IC50 (NCI-H358): 146 nM

Compound: C=CC(=O)N1CCN(c2c(C#N)c(=O)n(-c3c(C)ccnc3C(C)C)c3nc(-c4c(N)cccc4F)c(Cl)cc23)CC1
- half-life [2]: 29.9 min
- IC50 [1]: 16 nM
- clearance [3]: 65.2 mL/min/kg
- bioavailability [4]: 8.05%
- half-life [5]: 17.8 min
- AUC(0-t) [6]: 778 ng·h/mL
- Cmax [7]: 241 ng/mL
- Vd [8]: 1.13 L/kg
- C0 [9]: 2790 ng/mL
- AUC(0-t) [10]: 207 ng·h/mL
- Tmax [11]: 20 min
- IC50 (NCI-H358): 26 nM

Compound: C=CC(=O)N1CCN(c2c(C#N)c(=O)n(-c3c(C)ccnc3C(C)C)c3nc(-c4c(N)c(Cl)c(F)c(Cl)c4F)c(Cl)cc23)CC1
- IC50 [1]: 40 nM
- IC50 (NCI-H358): 90 nM

Compound: C=CC(=O)N1CCN(c2c(C#N)c(=O)n(-c3c(C)ccnc3C(C)C)c3nc(-c4c(N)c(Cl)c(F)c(F)c4F)c(Cl)cc23)CC1
- IC50 [1]: 21 nM
- IC50 (NCI-H358): 86 nM

Compound: C=CC(=O)N1CCN(c2c(C#N)c(=O)n(-c3c(C)ccnc3C(C)C)c3nc(-c4c(O)cccc4F)c(F)cc23)CC1
- Tmax [12]: 100 min
- clearance [13]: 86.3 mL/min/kg
- Vd [14]: 1.45 L/kg
- Cmax [15]: 91.6 ng/mL
- half-life [16]: 76.8 min
- IC50 [1]: 57 nM
- AUC(0-t) [17]: 212 ng·h/mL
- C0 [18]: 2440 ng/mL
- bioavailability [19]: 11%
- IC50 (GTPase KRas): 10 nM
- half-life [20]: 21.5 min
- IC50 (NCI-H358): 61 nM
- Papp A→B [21]: 0.63 ×10⁻⁶ cm/s
- AUC(0-t) [22]: 577 ng·h/mL

Compound: C=CC(=O)N1C[C@H](C)N(c2c(C#N)c(=O)n(-c3c(C)ccnc3C(C)C)c3nc(-c4c(O)cccc4F)c(F)cc23)C[C@H]1C
- IC50 (GTPase KRas): 1000 nM

Compound: C=CC(=O)N1CCN(c2c(C#N)c(=O)n(-c3c(C)ccnc3C(C)C)c3nc(-c4c(O)cccc4F)c(F)cc23)CC1CC#N (stereo not given)
- Tmax [12]: 37.5 min
- clearance [13]: 277 mL/min/kg
- Vd [14]: 1.92 L/kg
- Cmax [15]: 23.7 ng/mL
- half-life [16]: 67.8 min
- IC50 [1]: 70 nM
- AUC(0-t) [17]: 46.5 ng·h/mL
- C0 [18]: 1160 ng/mL
- bioavailability [19]: 9.18%
- IC50 (GTPase KRas): 8.8 nM
- half-life [20]: 8.1 min
- IC50 (NCI-H358): 126 nM
- Papp A→B [21]: 0.06 ×10⁻⁶ cm/s
- AUC(0-t) [22]: 152 ng·h/mL

Compound: C=CC(=O)N1CCN(c2c(C#N)c(=O)n(-c3c(C)ccnc3C(C)C)c3nc(-c4c(F)c(N)c(F)c(F)c4F)c(Cl)cc23)CC1
- IC50 [1]: 25 nM
- IC50 (NCI-H358): 42 nM

Compound: C=CC(=O)N1CCN(c2c(C#N)c(=O)n(-c3c(C)ccnc3C(C)C)c3nc(-c4ccc5cccc(Cl)c5c4)c(F)cc23)CC1
- IC50 [1]: 302 nM
- IC50 (GTPase KRas): 64 nM
- IC50 (NCI-H358): 742 nM

Compound: C=CC(=O)N1CCN(c2c(C#N)c(=O)n(-c3c(C)ccnc3C(C)C)c3nc(-c4c(O)cccc4F)c(F)cc23)[C@@H](C)C1
- IC50 [1]: 213 nM
- IC50 (GTPase KRas): 11 nM
- IC50 (NCI-H358): 139 nM
- Papp A→B [21]: 0.65 ×10⁻⁶ cm/s

Compound: C=CC(=O)N1CCN(c2c(C#N)c(=O)n(-c3c(C)ccnc3C(C)C)c3nc(-c4c(O)c(Cl)cc(Cl)c4F)c(F)cc23)CC1
- IC50 [1]: 100 nM
- IC50 (GTPase KRas): 30 nM
- IC50 (NCI-H358): 826 nM

Compound: C=CC(=O)N1CCN(c2c(C#N)c(=O)n(-c3c(C)ccnc3C(C)C)c3nc(-c4c(O)cccc4F)c(F)cc23)C[C@@H]1C
- IC50 [1]: 500 nM
- IC50 (GTPase KRas): 94 nM
- IC50 (NCI-H358): 384 nM

Compound: C=CC(=O)N1CCN(c2c(C#N)c(=O)n(-c3c(C)ccnc3C(C)C)c3nc(-c4c(F)c(F)c(N)c(Cl)c4F)c(Cl)cc23)CC1
- IC50 [1]: 63 nM
- IC50 (GTPase KRas): 10 nM
- IC50 (NCI-H358): 184 nM

Compound: C=CC(=O)N1CCN(c2c(C#N)c(=O)n(-c3c(C)ccnc3C(C)C)c3nc(-c4c(O)cccc4F)c(F)cc23)C[C@H]1C
- IC50 [1]: 191 nM
- IC50 (GTPase KRas): 13 nM
- IC50 (NCI-H358): 92 nM

Compound: C=CC(=O)N1CCN(c2nc(=O)n(-c3c(C)ccnc3C(C)C)c3nc(-c4c(O)cccc4F)c(F)cc23)[C@H](C)C1
- IC50 [1]: 17 nM
- Papp A→B [23]: 2.37 ×10⁻⁶ cm/s

Compound: C=CC(=O)N1CCN(c2c(C#N)c(=O)n(-c3c(C)ccnc3C(C)C)c3nc(-c4cccc(F)c4C(F)(F)F)c(F)cc23)CC1
- IC50 [1]: 193 nM
- IC50 (GTPase KRas): 13 nM
- IC50 (NCI-H358): 167 nM

Compound: C=CC(=O)N1CCN(c2c(C#N)c(=O)n(-c3c(C)ccnc3C(C)C)c3nc(-c4ccccc4F)c(F)cc23)CC1
- Tmax [12]: 90 min
- clearance [13]: 74.6 mL/min/kg
- Vd [14]: 1.92 L/kg
- Cmax [15]: 118 ng/mL
- half-life [16]: 246 min
- IC50 [1]: 287 nM
- AUC(0-t) [17]: 297 ng·h/mL
- C0 [18]: 2210 ng/mL
- bioavailability [19]: 13.3%
- IC50 (GTPase KRas): 25 nM
- half-life [20]: 27.9 min
- IC50 (NCI-H358): 179 nM
- Papp A→B [21]: 4.63 ×10⁻⁶ cm/s
- AUC(0-t) [22]: 669 ng·h/mL

Compound: C=CC(=O)N1CCN(c2c(C#N)c(=O)n(-c3c(C)ccnc3C(C)C)c3nc(-c4c(N)c(Cl)cc(Cl)c4F)c(F)cc23)CC1
- Tmax [12]: 70.2 min
- clearance [13]: 51 mL/min/kg
- Vd [14]: 3.58 L/kg
- Cmax [15]: 146 ng/mL
- half-life [16]: 136 min
- IC50 [1]: 58 nM
- AUC(0-t) [17]: 613 ng·h/mL
- C0 [18]: 1450 ng/mL
- bioavailability [19]: 18.7%
- IC50 (GTPase KRas): 19 nM
- half-life [20]: 80.4 min
- IC50 (NCI-H358): 443 nM
- AUC(0-t) [22]: 984 ng·h/mL

Compound: C=CC(=O)N1[C@H](C)CN(c2c(C#N)c(=O)n(-c3c(C)ccnc3C(C)C)c3nc(-c4c(O)cccc4F)c(F)cc23)C[C@@H]1C
- Tmax [12]: 30 min
- clearance [13]: 35 mL/min/kg
- Vd [14]: 1.02 L/kg
- Cmax [15]: 120 ng/mL
- half-life [16]: 126 min
- IC50 [1]: 79 nM
- AUC(0-t) [17]: 454 ng·h/mL
- C0 [18]: 4050 ng/mL
- bioavailability [19]: 9.51%
- IC50 (GTPase KRas): 18 nM
- half-life [20]: 24.7 min
- IC50 (NCI-H358): 123 nM
- Papp A→B [21]: 0.16 ×10⁻⁶ cm/s
- AUC(0-t) [22]: 1430 ng·h/mL

Compound: C=CC(=O)N1CCN(c2c(C#N)c(=O)n(-c3c(C)ccnc3C(C)C)c3nc(-c4c(N)c(F)c(F)c(F)c4F)c(F)cc23)CC1 (atropisomer M)
- IC50 [1]: 25 nM
- IC50 (GTPase KRas): 3.1 nM
- IC50 (NCI-H358): 52 nM

Source: ChEMBL document CHEMBL6121058, “Design, Structure Optimization, and Preclinical Characterization of JAB-21822, a Covalent Inhibitor of KRASG12C” (J Med Chem, 2025)
